# Patent US11707519B2, “Phosphorylated heptose compounds: process for their preparation and use” (priority 2017, dated 2023)
# Tests used:
# [1] = test system: TbpB originating from group B N. meningitidis; assay: Adjuvant test: mice immunized with TbpB, serum IgG titers to TbpB by ELISA; format: in vivo, C57BL/6NCrl mice; settings: 25 μg TbpB with adjuvant intramuscularly, doses D0, D21, D28; serum D14, D28, D35; compared with TbpB alone and TbpB+alum; FIG. 38A
# Method: (§1) FIG. 38: 6-week-old male C57BL/6NCrl mice were immunized with TbpB originating from group B N. meningitidis, purified from recombinant E. coli. All groups were immunized with 25 μg of TbpB with or without adjuvant, in a total volume of 30 μL intramuscularly: TbpB alone, TbpB+alum, and TbpB+HBP (200 μg). Three doses were given: D0, D21, and D28. Serum was collected at D0 prior to immunization, D14, D28, and D35 and then examined by ELISA for IgG titers to TbpB (FIG. 38A). Mice were challenged on D36 with 5×10^7 of N. meningitidis strain expressing the homologous TbpB. Mice were injected with human transferrin (200 μL of 8 mg/mL) as this is critical for the development of sepsis in this model. Mice were monitored at the 1 h, 12 h, 18 h, 24 h, and 36 h time points. At 1 h, blood was collected to enumerate CFUs (FIG. 38B). Clinical scores were collected at 12 h post challenge (FIG. 38C).
# (§2) HBP can act as an adjuvant. 6-week-old male C57BL/6NCrl mice were immunized with TbpB originating from group B N. meningitidis, purified from recombinant E. coli. All groups were immunized with 25 μg of TbpB with or without adjuvant, in a total volume of 30 μL intramuscularly TbpB, TbpB+alum, and TbpB+HBP (equimolar to 200 μg). Three doses were given: D0, D21, D28. […] Mice were monitored at the 1 h, 12 h, 18 h, 24 h, and 36 h time points. […]
# HCT 116 cells = assay: IL-8 ELISA after stimulation of human colonic epithelial cells (HCT 116, WT or TIFA KO); format: cell-based; settings: 10 μg/mL synthetic compound, 20 minutes with digitonin, then 6 hours, FIG. 36
# Method: (§3) FIG. 36: Stimulation of human colonic epithelial cells by compounds/products according to the invention. Human colonic epithelial cells (HCT 116) that were either wild type (WT) or deficient in TIFA protein expression (knockout, KO) were stimulated for 20 minutes in permeabilization buffer (5 μg/mL digitonin) in the presence of culture supernatant from N. meningitidis mutants with (gmhB) or without (hldA) HBP or 10 μg/mL of synthetic compound according to the invention. Treatment was removed, cells were washed, and cells were incubated for 6 hours in complete media and IL-8 levels in culture supernatants were measured by ELISA. The results are mean of technical duplicates.
# as §3, with “Human” for “FIG. 36: Stimulation of human colonic epithelial cells by compounds/products according to the invention. Human”, “results obtained are illustrated in FIG. 36. They” for “results”
# [2] = test system: NF-κB-driven luciferase reporter in HEK 293T cells; assay: NF-κB-driven luciferase reporter assay in HEK 293T cells; format: cell-based; settings: 20 μg/mL synthetic compound, 20 minutes in permeabilization buffer (5 μg/mL digitonin), then 3.5 hours in complete medium; FIG. 35
# Method: (§4) FIG. 35: Effects of compounds/products according to the invention on HEK 293T cells encoding an NF-κB-driven luciferase reporter gene. HEK 293T cells were transfected with a plasmid encoding an NF-κB-driven luciferase reporter. After 24 hours, cells were stimulated for 20 minutes in permeabilization buffer (5 μg/mL digitonin) in the presence of culture supernatant from N. meningitidis mutants with (gmhB) or without (hldA) HBP or 20 μg/mL of synthetic compounds according to the invention. Treatment was removed; cells were washed and incubated for 3.5 hours in complete medium. A luciferase assay was then performed. The results are mean of technical triplicates.
# as §4, with “HEK” for “FIG. 35: Effects of compounds/products according to the invention on HEK 293T cells encoding an NF-κB-driven luciferase reporter gene. HEK”, “compound” for “compounds”, “results obtained are illustrated in FIG. 35. They” for “results”
# N. meningitidis = assay: Challenge of immunized mice with N. meningitidis strain expressing matching TbpB (sepsis model); format: in vivo, C57BL/6NCrl mice; settings: TbpB with adjuvant as opposed to TbpB alone
# Method: as §1, §2
# THP-1 cells = assay: IL-8 ELISA after stimulation of human macrophage cells (THP-1); format: cell-based; settings: THP-1, 30 μM or 150 μM synthetic compound, 20 minutes with digitonin, then 6 hours; FIG. 37
# Method: (§5) FIG. 37: Stimulation of human macrophages by compounds/products according to the invention. Human macrophage cells (THP-1) were stimulated for 20 minutes in permeabilization buffer (5 μg/mL digitonin) in the presence of water, 39.8 μM of the Nod1 agonist C12-iE-DAP (which stimulates in a TIFA-independent manner), or either 30 μM or 150 μM of synthetic compound according to the invention. Treatment was removed, cells were washed, and cells were incubated for 6 hours in complete media before the IL-8 levels in culture supernatants were measured by ELISA. The results are the mean and standard error of the mean of three technical replicates. Nod1 agonist: C12-iE-DAP (20 μg/mL, 39.8 μM); HBP: D-glycero-1-D-manno-heptose-1β,7-bi-phosphate.
# as §5, with “Stimulation” for “FIG. 37: Stimulation”, “ELISA (FIG. 37).” for “ELISA.”, “Nod1 agonist: C12-iE-DAP (20 μg/mL, 39.8 μM); HBP: D-glycero-1-D-manno-heptose-1β,7-bi-phosphate.” left out
compound,measurement,setting,value
"O=P(O)(O)OC[C@@H](O)[C@H]1O[C@@H](OP(=O)(O)O)[C@@H](O)[C@@H](O)[C@@H]1O [HBP, D-glycero-D-manno-heptopyranose 1β,7-bisphosphate]",IgG titers to TbpB,[1],significantly higher than administration of TbpB alone and greater than observed with alum as the adjuvant
same,cytokine expression (IL-8 levels in culture supernatants),HCT 116 cells,can drive cytokine expression in vitro
same,NF-κB stimulation (luciferase assay),[2],can immunomodulate via NF-κB stimulation in vitro
same,clinical scores,"N. meningitidis; challenge D36, 12 h post challenge, FIG. 38C",lower
same,bacterial burden (CFU in blood),"N. meningitidis; challenge D36 with 5×10^7 N. meningitidis, blood at 1 h, FIG. 38B",reduced
same,cytokine expression (IL-8 levels in culture supernatants),THP-1 cells,can drive cytokine expression in vitro
